Results on 15 compounds are retold here after PMC11943723, “Synthesis and Biological Activity of Glycosyl Thiazolyl Disulfides Based on Thiacarpine, an Analogue of the Cytotoxic Alkaloid Polycarpine from the Ascidian Polycarpa aurata” (Marine Drugs, 2025).

SMILES strings stand for the structures. Converted amounts (≈) assume the structure as drawn. Counter-ions that a name gives are not always drawn. Where only a bound is given, the exact number is not on record here.

Broadly, the MIC50 is an inhibitory concentration at the 50% level, which refers to growth in some studies and to a panel of isolates in others. For orientation: EC50 means the midpoint of the concentration-response curve.

The subject of data set [1] is Candida albicans (KMM 455). The experiment in a line: Antimicrobial activity, inhibition of microbial growth (optical density). The following applies: Candida albicans, KMM455; 18 h, OD 620 nm; read-out: Inhibition of Microbial Growth MIC50, C. albicans. It is filed as cell-based. The procedure: (§1) The antimicrobial activity of the compounds was determined against Gram-positive bacteria Staphylococcus aureus (ATCC 21027), Gram-negative bacteria Escherichia coli (VKPM B-7935), and yeast-like fungi Candida albicans (KMM 455) (all test strains were obtained from the Collection of Marine Microorganisms KMM PIBOC FEB RAS) in liquid nutrient media. Test cultures of S. aureus, E. coli, and C. albicans were grown in Petri dishes on a solid nutrient medium (Mueller–Hinton broth with the addition of agar—16.0 g/L) at 37 °C for 24 h. The antimicrobial activity of the compounds was determined by the change in optical density and expressed as the percentage of bacterial inhibition at different concentrations of substances added to the well of the microorganism suspension, compared to the control. The compounds were dissolved in dimethyl sulfoxide (DMSO) at a concentration of 10 mM and stored at −20 °C. Before the experiment, the solution of substances in DMSO was diluted with PBS at a concentration of 0.5–100.0 µM and added to the wells so that the concentration of DMSO in the culture medium was less than 1%. Antimicrobial activity was determined in 96-well microplates in a liquid Mueller–Hinton nutrient medium. For S. aureus, E. coli, and C. albicans, a bacterial suspension of 10^6 CFU in 1 mL of the media was used, 90 μL was added to each well of the microplates and then incubated in a thermostatted shaker at 37 °C for 18 h. Inhibition of microorganism growth was assessed by measuring the optical density at 620 nm using a microplate reader (Thermo Fisher Scientific, Waltham, MA, USA) after preliminary shaking of the plates for 10 min. All experiments were performed in triplicate. Gentamicin (S. aureus and E. coli) and nitrofungin (C. albicans) were used as positive controls, and 1% DMSO in PBS was used as a negative control.

Data set [2] concerns Escherichia coli (VKPM B-7935). Described as above. The following applies: Escherichia coli; 18 h, OD 620 nm; read-out: Inhibition of Microbial Growth MIC50, E. coli. Type of data set: cell-based. The procedure: as §1
Data set [3] has as its system Staphylococcus aureus (ATCC 21027). The data set is described as above. It is filed as cell-based. The following applies: Staphylococcus aureus, ATCC21027; 18 h, OD 620 nm; read-out: Inhibition of Microbial Growth MIC50, S. aureus. The procedure: as §1
For the next data set, the system named is HeLa (cervical cancer). Briefly: MTT cell viability assay, HeLa. Type of data set: cell-based, human. The following applies: Homo sapiens, HeLa, 24 h, 24 h incubation, read-out: Cytotoxicity EC50, HeLa. The source says:
(§2) Human erythrocytes were purchased from the blood transfusion station Vladivostok. Human breast cancer cell lines MCF-7^HTB−22, and MDA-MB-231^CRM-HTB−26, liver hepatocellular carcinoma Hep G2^HB−8065, prostate adenocarcinoma PC-3^CRL−1435, cervical adenocarcinoma HeLa^CRM-CCL−2, and normal bronchial epithelial cells BEAS-2B ^CRL−3588 were received from ATCC (Manassas, VA, USA).
(§3) DMEM medium (Biolot, Russia) with 1% penicillin/streptomycin and 10% fetal bovine serum (FBS) (Biolot, Russia) was used for cultivation of Hep G2, PC-3, HeLa, and Beas-2b. MEM medium (Biolot, Russia) with 1% penicillin/streptomycin sulfate (Biolot, Russia) and FBS (Biolot, Russia) to a final concentration of 10% for MCF-7 and MDA-MB-231 cells.
(§4) The effect of the studied compounds on the viability of human cancer and normal cells was determined using the MTT (3-[4,5-dimethylthiazol-2-yl]-2,5 diphenyl tetrazolium bromide) assay. Briefly, 6 × 10^3 cells per well were seeded into 96-well plates and incubated for 24 h for adhesion, followed by incubation for 24 h with different concentrations of the substances. After incubation, the medium containing the test substances was replaced with 100 µL of fresh medium. Then, 10 μL of MTT (Sigma-Aldrich, Madison, WI, USA) reagent (5 mg/mL MTT in PBS) was added into the cells and the plates for additional 4 h. Thereafter, 100 µL of SDS-HCl solution (1 g SDS/10 mL dH2O/17 µL 6N HCl) was added to each well and incubated for 18 h. The absorbance of the converted formazan dye was measured using a Multiskan FC microplate photometer (Thermo Scientific, Waltham, MA, USA) at a wavelength of 570 nm. All experiments were performed in triplicate. Cytotoxic activity was expressed as a percentage of the cell viability.
On the technique in general: Tetrazolium assays rely on reduction of a dye to a coloured formazan, in cell work by metabolically active cells.

Data set [4] concerns Hep G2 (hepatocellular carcinoma). Briefly: MTT cell viability assay, Hep G2. It is filed as cell-based. The following applies: Homo sapiens, HepG2, 24 h incubation, read-out: Cytotoxicity EC50, Hep G2.
Source text: as §2, §3, §4

In data set [5] the test system is MDA-MB-231 (triple-negative breast cancer). Briefly: MTT cell viability assay, MDA-MB-231. It is filed as cell-based, human. The following applies: Homo sapiens, MDA-MB-231, 24 h, 24 h incubation, read-out: Cytotoxicity EC50, MDA-MB-231 (TNBC).
Source text: as §2, §3, §4

The nature of data set [6]: MTT cell viability assay, BEAS-2B normal cells. The following applies: human, BEAS-2B normal bronchial epithelial cells, 24 h incubation, read-out: Cytotoxicity EC50, BEAS 2B. It is filed as cell-based.
Source text: as §2, §3, §4

Take `Nc1nc(-c2ccccc2)c(SSc2sc(N)nc2-c2ccccc2)s1` [Compound 1b, bis(2-amino-4-phenyl-5-thiazolyl)disulfide]: the MIC50 in data set [1] came out at 6.2 ± 0.6 µM (≈ 2.57 µg/mL); in data set [2], 13.9 ± 1.3 µM (≈ 5.76 µg/mL); in data set [3], 5.2 ± 0.5 µM (≈ 2.16 µg/mL).
The like results for `Nc1nc(-c2ccc(Br)cc2)c(SSc2sc(N)nc2-c2ccc(Br)cc2)s1` [Compound 1c] were, in that order, 3.1 ± 0.4 µM (≈ 1.77 µg/mL), 15.7 ± 2.3 µM (≈ 8.99 µg/mL) and 3.4 ± 0.4 µM (≈ 1.95 µg/mL).
For `Nc1nc(-c2ccc(Cl)cc2)c(SSc2sc(N)nc2-c2ccc(Cl)cc2)s1` [Compound 1d], in that order: 5 ± 0.4 µM (≈ 2.42 µg/mL), 30.9 ± 3 µM (≈ 14.9 µg/mL) and 2.8 ± 0.2 µM (≈ 1.35 µg/mL).
For the compound `Cc1ccc(-c2nc(N)sc2SSc2sc(N)nc2-c2ccc(C)cc2)cc1` [Compound 1e], the MIC50 in data set [1] amounted to 19.5 ± 2 µM (≈ 8.63 µg/mL); in data set [2], 33.9 ± 3.9 µM (≈ 15 µg/mL); in data set [3], 30.7 ± 2.1 µM (≈ 13.6 µg/mL).
On to `COc1ccc(-c2nc(N)sc2SS[C@@H]2O[C@H](COC(C)=O)[C@@H](OC(C)=O)[C@H](OC(C)=O)[C@H]2OC(C)=O)cc1` [Compound 4a, 5-[(2,3,4,6-Tetra-O-acetyl-β-D-glucopyranosyl)disulfanyl]-2-amino-4-(4-methoxyphenyl) thiazole], for which the EC50 (in the data set with HeLa (cervical cancer); in data set [4]; in data set [5]) was > 25 µM each time. In addition, the EC50 at 24 h in data set [6] came to 19.9 µM. Moreover, the MIC50 in data set [1] was 31.5 ± 3.1 µM (≈ 18.9 µg/mL); in data set [2], > 50 µM; in data set [3], 32.5 ± 3.2 µM (≈ 19.5 µg/mL).
With `CC(=O)OC[C@H]1O[C@@H](SSc2sc(N)nc2-c2ccccc2)[C@H](OC(C)=O)[C@@H](OC(C)=O)[C@@H]1OC(C)=O` [Compound 4b, 5-[(2,3,4,6-Tetra-O-acetyl-β-D-glucopyranosyl)disulfanyl]-2-amino-4-phenylthiazole], the EC50 with HeLa (cervical cancer) was > 25 µM; in data set [4], > 25 µM; in data set [5] it was 24.1 µM. For the same compound, the EC50 at 24 h in data set [6] was determined as 19 µM. Also, the MIC50 was 20.5 ± 2.7 µM (≈ 11.7 µg/mL) in data set [1], 31.2 ± 2 µM (≈ 17.8 µg/mL) in data set [2] and 28.4 ± 3.1 µM (≈ 16.2 µg/mL) in data set [3].
As to `CC(=O)O[C@@H]1[C@@H](OC(C)=O)[C@H](SSc2sc(N)nc2-c2ccccc2)OC[C@H]1OC(C)=O` [Compound 4g, 5-[(2,3,4-Tri-O-acetyl-β-D-xylopyranosyl)disulfanyl]-2-amino-4-phenylthiazole], the EC50 (with HeLa (cervical cancer); in data set [4]; in data set [5]) was > 25 µM each time. For the same compound, the EC50 at 24 h in data set [6] was > 25 µM. The values for the MIC50 in data set [1], in data set [2] and in data set [3] were 35.7 ± 3 µM (≈ 17.8 µg/mL), 42.1 ± 4.1 µM (≈ 21 µg/mL) and 34 ± 1.6 µM (≈ 17 µg/mL), respectively.
For the compound `CC(=O)O[C@@H]1[C@@H](OC(C)=O)[C@H](SSc2sc(N)nc2-c2ccc(C)cc2)OC[C@H]1OC(C)=O` [Compound 4j, 5-[(2,3,4-Tri-O-acetyl-β-D-xylopyranosyl)disulfanyl]-2-amino-4-(p-tolyl)thiazole], the results for the EC50 (in the data set on HeLa (cervical cancer); in data set [4]; in data set [5]) were > 25 µM, > 25 µM and 23.7 µM, respectively. Moreover, the EC50 at 24 h in data set [6] was > 25 µM. In addition, the MIC50 in data set [1] turned out to be 18.1 ± 1 µM (≈ 9.28 µg/mL); in data set [2], 25.5 ± 2 µM (≈ 13.1 µg/mL); in data set [3], 25 ± 1.4 µM (≈ 12.8 µg/mL).
With `COc1ccc(-c2nc(N)sc2SS[C@@H]2O[C@H](CO)[C@@H](O)[C@H](O)[C@H]2O)cc1` [Compound 5a, 5-[(β-D-glucopyranosyl)disulfanyl]-2-amino-4-(4-methoxyphenyl)thiazole hydrochloride], the EC50 in the data set with HeLa (cervical cancer) was > 25 µM; in data set [4], > 25 µM; in data set [5] it was 24.9 µM. Besides, the EC50 at 24 h in data set [6] is > 25 µM. In addition, the MIC50 in data set [1], in data set [2] and in data set [3] was > 50 µM throughout.
On to `Nc1nc(-c2ccccc2)c(SS[C@@H]2O[C@H](CO)[C@@H](O)[C@H](O)[C@H]2O)s1` [Compound 5b, 5-[(β-D-glucopyranosyl)disulfanyl]-2-amino-4-phenylthiazole hydrochloride], for which the EC50 (with HeLa (cervical cancer); in data set [4]; in data set [5]) was > 25 µM throughout. For the same compound, the EC50 at 24 h in data set [6] was determined as 20.8 µM. Also, the MIC50 in data set [1], in data set [2] and in data set [3] was > 50 µM in each case.
For `Cc1ccc(-c2nc(N)sc2SS[C@@H]2O[C@H](CO)[C@@H](O)[C@H](O)[C@H]2O)cc1` [Compound 5e, 5-[(β-D-glucopyranosyl)disulfanyl]-2-amino-4-(p-tolyl)thiazole hydrochloride], the EC50 was > 25 µM with HeLa (cervical cancer), > 25 µM in data set [4] and 23.5 µM in data set [5]. Also, the EC50 at 24 h in data set [6] was found to be 22.6 µM. Besides, the MIC50 was 38.5 ± 3.4 µM in data set [1], > 50 µM in data set [2] and > 50 µM in data set [3].
On to `COc1ccc(-c2nc(N)sc2SS[C@@H]2OC[C@@H](O)[C@H](O)[C@H]2O)cc1` [Compound 5f, 5-[(β-D-xylopyranosyl)disulfanyl]-2-amino-4-(4-methoxyphenyl)thiazole hydrochloride], for which the EC50 (with HeLa (cervical cancer); in data set [4]; in data set [5]) was > 25 µM throughout. Further, the EC50 at 24 h in data set [6] was > 25 µM. Also, the MIC50 in data set [1] was 36.2 ± 2.1 µM; in data set [2] it was > 50 µM; in data set [3], > 50 µM.
For `Nc1nc(-c2ccccc2)c(SS[C@@H]2OC[C@@H](O)[C@H](O)[C@H]2O)s1` [Compound 5g, 5-[(β-D-xylopyranosyl)disulfanyl]-2-amino-4-phenylthiazole hydrochloride], the EC50 (in the data set on HeLa (cervical cancer); in data set [4]; in data set [5]) was > 25 µM in each case. Besides, the EC50 at 24 h in data set [6] is 22 µM. Also, the MIC50 in data set [1] was 25.3 ± 1 µM; in data set [2] it was 24.9 ± 2.2 µM; in data set [3], > 50 µM.
For the compound `Nc1nc(-c2ccc(Cl)cc2)c(SS[C@@H]2OC[C@@H](O)[C@H](O)[C@H]2O)s1` [Compound 5i, 5-[(β-D-xylopyranosyl)disulfanyl]-2-amino-4-(4-clorophenyl)thiazole hydrochloride], the EC50 (with HeLa (cervical cancer); in data set [4]; in data set [5]) was > 25 µM in each case. The EC50 at 24 h in data set [6] was > 25 µM. Moreover, the MIC50 in data set [1] was determined as 13.8 ± 1.2 µM; in data set [2], 21 ± 3 µM; in data set [3], 13.7 ± 1.1 µM.
`CNC(C)C1CCC(N)C(OC2C(N)CC(N)C(OC3OCC(C)(O)C(NC)C3O)C2O)O1` (stereo not drawn) [Gentamicin, reference compound]: the figures for the MIC50 in data set [2] and in data set [3] were 5.1 ± 0.7 µM (≈ 2.44 µg/mL) and 4.3 ± 0.8 µM (≈ 2.05 µg/mL), respectively.
